Test results reported in ChEMBL document CHEMBL4602709 (ACS Med Chem Lett, 2020).

Columns and labels:
[1] = biological target: Tyrosine-protein kinase Lck (Homo sapiens, UniProt P06239); experiment: Inhibition of LCK (unknown origin) assessed as residual activity incubated for 5 mins in presence of [gamma-33ATP] by scintillation counting based radiometry assay
[2] = biological target: Platelet-derived growth factor receptor alpha (Homo sapiens, UniProt P16234); experiment: Inhibition of PDGFRalpha (unknown origin) assessed as residual activity incubated for 5 mins in presence of [gamma-33ATP] by scintillation counting based radiometry assay
[3] = Inhibition of VEGFR (unknown origin) assessed as residual activity incubated for 5 mins in presence of [gamma-33ATP] by scintillation counting based radiometry assay; set-up: species or system Homo sapiens
[4] = biological target: Ephrin type-A receptor 4 (Homo sapiens) (UniProt P54764); experiment: Inhibition of EPHA4 (unknown origin) assessed as residual activity at 10 uM incubated for 5 mins in presence of [gamma-33ATP] by scintillation counting based radiometry assay relative to control
[5] = biological target: T1, Mitogen-activated protein kinase kinase kinase kinase 3 (Homo sapiens, UniProt Q8IVH8); experiment: Inhibition of MAP4K3 (unknown origin) assessed as residual activity incubated for 5 mins in presence of [gamma-33ATP] by scintillation counting based radiometry assay
T1 sequence (Q8IVH8 whole entry): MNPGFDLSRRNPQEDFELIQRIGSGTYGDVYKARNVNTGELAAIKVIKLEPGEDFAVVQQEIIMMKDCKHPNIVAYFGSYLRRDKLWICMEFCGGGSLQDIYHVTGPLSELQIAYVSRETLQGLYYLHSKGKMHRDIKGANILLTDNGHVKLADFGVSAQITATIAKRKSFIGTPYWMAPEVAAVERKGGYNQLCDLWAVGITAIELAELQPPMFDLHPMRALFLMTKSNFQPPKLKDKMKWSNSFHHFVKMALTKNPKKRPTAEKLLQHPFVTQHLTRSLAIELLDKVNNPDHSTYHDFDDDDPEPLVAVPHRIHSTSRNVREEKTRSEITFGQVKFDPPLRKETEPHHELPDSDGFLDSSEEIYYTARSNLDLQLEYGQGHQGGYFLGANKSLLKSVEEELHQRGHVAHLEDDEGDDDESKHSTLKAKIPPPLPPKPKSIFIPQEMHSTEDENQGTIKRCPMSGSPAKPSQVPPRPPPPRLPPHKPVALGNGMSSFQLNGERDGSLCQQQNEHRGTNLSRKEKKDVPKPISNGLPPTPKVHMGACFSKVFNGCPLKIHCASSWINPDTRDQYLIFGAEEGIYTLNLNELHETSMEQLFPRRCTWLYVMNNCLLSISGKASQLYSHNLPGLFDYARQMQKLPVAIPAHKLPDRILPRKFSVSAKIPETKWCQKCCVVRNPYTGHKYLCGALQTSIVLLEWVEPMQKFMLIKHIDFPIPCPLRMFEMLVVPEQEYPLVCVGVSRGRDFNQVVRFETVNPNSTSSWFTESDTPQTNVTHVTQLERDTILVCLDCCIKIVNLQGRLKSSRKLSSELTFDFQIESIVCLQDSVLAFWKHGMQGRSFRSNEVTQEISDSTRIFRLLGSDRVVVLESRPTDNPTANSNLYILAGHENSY

[6] = biological target: Voltage-gated inwardly rectifying potassium channel KCNH2 (Homo sapiens, UniProt Q12809); experiment: Inhibition of human ERG incubated for 4 hrs by competitive fluorescence tracer binding based assay
[7] = biological target: T2, Discoidin domain-containing receptor 2 (Homo sapiens, UniProt Q16832); experiment: Inhibition of DDR2 (unknown origin) assessed as residual activity incubated for 5 mins in presence of [gamma-33ATP] by scintillation counting based radiometry assay
T2 sequence (Q16832 whole entry): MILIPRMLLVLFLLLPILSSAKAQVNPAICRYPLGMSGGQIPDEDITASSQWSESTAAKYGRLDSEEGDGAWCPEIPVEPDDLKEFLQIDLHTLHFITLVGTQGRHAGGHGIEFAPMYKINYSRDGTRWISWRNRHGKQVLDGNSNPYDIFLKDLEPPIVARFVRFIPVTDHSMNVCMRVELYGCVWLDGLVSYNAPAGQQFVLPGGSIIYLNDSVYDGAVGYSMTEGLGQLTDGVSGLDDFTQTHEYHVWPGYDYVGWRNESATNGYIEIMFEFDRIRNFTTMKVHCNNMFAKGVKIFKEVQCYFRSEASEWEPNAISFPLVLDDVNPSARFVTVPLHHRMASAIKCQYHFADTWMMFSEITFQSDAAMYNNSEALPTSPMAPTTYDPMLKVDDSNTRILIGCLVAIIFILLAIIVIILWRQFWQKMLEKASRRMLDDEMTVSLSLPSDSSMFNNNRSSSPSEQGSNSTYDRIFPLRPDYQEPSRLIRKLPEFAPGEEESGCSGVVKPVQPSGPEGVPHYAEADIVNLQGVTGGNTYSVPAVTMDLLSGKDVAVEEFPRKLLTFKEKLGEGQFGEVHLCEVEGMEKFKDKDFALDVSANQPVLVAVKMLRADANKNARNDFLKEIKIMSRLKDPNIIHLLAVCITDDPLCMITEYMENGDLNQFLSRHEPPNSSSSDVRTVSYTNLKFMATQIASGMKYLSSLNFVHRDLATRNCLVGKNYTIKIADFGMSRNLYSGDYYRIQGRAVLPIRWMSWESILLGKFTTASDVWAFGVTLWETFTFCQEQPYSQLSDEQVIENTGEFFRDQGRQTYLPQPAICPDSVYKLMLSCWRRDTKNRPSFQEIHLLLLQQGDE

[8] = biological target: T3, Tyrosine-protein kinase ABL1 (Homo sapiens, UniProt P00519); experiment: Inhibition of human ABL1 assessed as residual activity using EAIYAAPFAKKK as substrate by [gamma-33P]-ATP assay
[9] = biological target: Proto-oncogene tyrosine-protein kinase Src (Homo sapiens, UniProt P12931); experiment: Inhibition of SRC (unknown origin) assessed as residual activity incubated for 5 mins in presence of [gamma-33ATP] by scintillation counting based radiometry assay
[10] = Cytotoxicity against human THLE3 assessed as reduction in cell viability incubated for 72 hrs by Cell Titer Glo 2.0 reagent based assay; details: THLE3 cells
[11] = Cytotoxicity against HEK293 cells assessed as reduction in cell viability incubated for 72 hrs by Cell Titer Glo 2.0 reagent based assay; details: human
[12] = biological target: T3, Tyrosine-protein kinase ABL1; experiment: Inhibition of ABL1 (unknown origin) assessed as residual activity incubated for 5 mins in presence of [gamma-33ATP] by scintillation counting based radiometry assay

T3 sequence (P00519 whole entry): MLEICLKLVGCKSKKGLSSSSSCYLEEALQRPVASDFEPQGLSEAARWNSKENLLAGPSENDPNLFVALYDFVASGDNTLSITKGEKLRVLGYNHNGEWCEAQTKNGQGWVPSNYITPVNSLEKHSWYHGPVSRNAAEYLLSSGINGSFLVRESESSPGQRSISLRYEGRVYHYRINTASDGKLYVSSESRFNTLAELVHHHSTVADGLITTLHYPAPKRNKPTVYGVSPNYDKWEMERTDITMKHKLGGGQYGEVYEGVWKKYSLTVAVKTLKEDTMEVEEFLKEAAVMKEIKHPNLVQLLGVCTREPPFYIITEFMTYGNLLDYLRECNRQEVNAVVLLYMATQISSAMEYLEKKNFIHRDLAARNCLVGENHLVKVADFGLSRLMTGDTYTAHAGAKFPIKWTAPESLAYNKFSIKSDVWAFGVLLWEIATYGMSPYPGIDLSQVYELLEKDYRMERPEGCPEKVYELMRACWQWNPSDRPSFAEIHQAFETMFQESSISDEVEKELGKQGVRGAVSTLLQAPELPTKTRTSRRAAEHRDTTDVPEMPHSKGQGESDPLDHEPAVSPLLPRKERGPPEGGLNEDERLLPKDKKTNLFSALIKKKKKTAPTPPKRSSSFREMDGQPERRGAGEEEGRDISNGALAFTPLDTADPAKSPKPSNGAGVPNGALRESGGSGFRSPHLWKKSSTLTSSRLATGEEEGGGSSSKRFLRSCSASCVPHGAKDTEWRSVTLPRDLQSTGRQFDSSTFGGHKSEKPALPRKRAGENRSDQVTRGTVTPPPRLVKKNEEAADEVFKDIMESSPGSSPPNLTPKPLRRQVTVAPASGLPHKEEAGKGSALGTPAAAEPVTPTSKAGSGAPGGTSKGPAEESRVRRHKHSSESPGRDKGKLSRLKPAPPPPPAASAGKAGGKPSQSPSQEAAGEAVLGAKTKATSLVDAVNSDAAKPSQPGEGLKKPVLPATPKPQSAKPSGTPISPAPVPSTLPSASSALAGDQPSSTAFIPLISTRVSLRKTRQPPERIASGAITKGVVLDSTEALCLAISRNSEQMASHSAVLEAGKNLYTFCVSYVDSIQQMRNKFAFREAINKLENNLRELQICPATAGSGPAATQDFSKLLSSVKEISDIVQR
Chain of Ephrin type-A receptor 4 (Homo sapiens) (P54764 whole entry, looked up): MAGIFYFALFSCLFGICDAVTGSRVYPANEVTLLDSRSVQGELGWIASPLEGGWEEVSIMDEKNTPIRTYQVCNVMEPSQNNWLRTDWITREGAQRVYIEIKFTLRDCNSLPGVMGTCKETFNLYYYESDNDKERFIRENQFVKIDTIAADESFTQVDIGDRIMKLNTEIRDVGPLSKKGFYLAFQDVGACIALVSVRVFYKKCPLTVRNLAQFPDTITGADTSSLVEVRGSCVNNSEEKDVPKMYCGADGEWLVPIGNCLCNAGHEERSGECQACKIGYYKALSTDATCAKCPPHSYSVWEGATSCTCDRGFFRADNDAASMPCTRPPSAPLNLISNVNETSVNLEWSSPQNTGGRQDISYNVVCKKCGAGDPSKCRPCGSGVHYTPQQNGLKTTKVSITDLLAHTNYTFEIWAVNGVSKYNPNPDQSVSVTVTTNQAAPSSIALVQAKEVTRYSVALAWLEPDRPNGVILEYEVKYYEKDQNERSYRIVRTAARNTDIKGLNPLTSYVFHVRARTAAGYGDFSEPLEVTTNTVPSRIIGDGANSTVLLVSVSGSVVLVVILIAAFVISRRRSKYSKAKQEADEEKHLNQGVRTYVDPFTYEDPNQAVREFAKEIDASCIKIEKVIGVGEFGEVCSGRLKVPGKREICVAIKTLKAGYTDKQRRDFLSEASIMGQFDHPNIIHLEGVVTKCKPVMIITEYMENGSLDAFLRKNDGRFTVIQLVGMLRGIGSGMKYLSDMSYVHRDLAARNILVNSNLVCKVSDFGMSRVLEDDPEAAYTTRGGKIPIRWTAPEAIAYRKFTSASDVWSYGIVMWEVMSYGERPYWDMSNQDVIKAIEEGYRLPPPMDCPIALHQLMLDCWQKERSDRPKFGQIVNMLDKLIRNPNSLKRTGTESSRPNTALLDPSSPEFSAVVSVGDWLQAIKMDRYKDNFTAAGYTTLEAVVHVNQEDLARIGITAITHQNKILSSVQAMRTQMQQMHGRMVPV
Chain of Platelet-derived growth factor receptor alpha (P16234 whole entry): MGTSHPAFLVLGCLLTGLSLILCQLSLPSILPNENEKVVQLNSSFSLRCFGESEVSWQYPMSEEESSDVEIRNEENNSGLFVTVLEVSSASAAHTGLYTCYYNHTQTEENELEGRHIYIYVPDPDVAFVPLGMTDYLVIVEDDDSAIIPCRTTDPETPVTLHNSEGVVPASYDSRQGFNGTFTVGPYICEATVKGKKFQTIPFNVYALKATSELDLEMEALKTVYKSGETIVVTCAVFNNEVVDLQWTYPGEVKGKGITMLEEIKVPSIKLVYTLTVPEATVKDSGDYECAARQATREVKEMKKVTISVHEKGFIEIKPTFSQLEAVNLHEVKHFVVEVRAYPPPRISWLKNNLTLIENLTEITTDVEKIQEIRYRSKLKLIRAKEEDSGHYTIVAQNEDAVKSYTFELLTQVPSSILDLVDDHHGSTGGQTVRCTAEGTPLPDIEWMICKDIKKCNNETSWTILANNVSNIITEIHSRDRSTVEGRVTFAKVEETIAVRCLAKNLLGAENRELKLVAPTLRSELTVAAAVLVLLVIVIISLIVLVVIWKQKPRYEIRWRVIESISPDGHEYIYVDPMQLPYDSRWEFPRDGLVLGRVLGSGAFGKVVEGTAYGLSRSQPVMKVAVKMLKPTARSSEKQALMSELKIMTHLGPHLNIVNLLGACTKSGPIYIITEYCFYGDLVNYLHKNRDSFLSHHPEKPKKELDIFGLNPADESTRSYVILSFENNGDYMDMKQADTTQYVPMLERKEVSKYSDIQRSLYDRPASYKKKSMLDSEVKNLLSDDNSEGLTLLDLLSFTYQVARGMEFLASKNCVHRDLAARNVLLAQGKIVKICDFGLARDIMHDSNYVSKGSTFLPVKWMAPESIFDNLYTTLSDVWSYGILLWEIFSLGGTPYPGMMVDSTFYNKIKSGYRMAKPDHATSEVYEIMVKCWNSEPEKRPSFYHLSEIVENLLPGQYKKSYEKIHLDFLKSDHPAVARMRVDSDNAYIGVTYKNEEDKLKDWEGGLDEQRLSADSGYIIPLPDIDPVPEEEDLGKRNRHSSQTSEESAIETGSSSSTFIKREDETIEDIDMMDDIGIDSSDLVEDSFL
Chain of Tyrosine-protein kinase Lck (P06239 whole entry): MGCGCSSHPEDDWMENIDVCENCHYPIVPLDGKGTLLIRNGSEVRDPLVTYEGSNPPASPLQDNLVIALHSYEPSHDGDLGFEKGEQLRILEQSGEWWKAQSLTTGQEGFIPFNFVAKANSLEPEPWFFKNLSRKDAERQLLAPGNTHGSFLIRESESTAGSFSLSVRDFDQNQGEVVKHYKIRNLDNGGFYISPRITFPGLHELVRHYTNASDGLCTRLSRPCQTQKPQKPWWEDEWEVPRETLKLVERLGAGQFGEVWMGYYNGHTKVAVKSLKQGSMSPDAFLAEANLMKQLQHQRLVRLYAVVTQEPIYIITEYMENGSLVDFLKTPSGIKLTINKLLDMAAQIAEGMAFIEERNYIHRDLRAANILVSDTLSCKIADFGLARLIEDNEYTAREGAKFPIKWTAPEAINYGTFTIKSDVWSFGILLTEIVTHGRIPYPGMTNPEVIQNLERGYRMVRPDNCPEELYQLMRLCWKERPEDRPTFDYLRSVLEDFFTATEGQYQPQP
Chain of Voltage-gated inwardly rectifying potassium channel KCNH2 (Q12809 whole entry, the tested form may be a part): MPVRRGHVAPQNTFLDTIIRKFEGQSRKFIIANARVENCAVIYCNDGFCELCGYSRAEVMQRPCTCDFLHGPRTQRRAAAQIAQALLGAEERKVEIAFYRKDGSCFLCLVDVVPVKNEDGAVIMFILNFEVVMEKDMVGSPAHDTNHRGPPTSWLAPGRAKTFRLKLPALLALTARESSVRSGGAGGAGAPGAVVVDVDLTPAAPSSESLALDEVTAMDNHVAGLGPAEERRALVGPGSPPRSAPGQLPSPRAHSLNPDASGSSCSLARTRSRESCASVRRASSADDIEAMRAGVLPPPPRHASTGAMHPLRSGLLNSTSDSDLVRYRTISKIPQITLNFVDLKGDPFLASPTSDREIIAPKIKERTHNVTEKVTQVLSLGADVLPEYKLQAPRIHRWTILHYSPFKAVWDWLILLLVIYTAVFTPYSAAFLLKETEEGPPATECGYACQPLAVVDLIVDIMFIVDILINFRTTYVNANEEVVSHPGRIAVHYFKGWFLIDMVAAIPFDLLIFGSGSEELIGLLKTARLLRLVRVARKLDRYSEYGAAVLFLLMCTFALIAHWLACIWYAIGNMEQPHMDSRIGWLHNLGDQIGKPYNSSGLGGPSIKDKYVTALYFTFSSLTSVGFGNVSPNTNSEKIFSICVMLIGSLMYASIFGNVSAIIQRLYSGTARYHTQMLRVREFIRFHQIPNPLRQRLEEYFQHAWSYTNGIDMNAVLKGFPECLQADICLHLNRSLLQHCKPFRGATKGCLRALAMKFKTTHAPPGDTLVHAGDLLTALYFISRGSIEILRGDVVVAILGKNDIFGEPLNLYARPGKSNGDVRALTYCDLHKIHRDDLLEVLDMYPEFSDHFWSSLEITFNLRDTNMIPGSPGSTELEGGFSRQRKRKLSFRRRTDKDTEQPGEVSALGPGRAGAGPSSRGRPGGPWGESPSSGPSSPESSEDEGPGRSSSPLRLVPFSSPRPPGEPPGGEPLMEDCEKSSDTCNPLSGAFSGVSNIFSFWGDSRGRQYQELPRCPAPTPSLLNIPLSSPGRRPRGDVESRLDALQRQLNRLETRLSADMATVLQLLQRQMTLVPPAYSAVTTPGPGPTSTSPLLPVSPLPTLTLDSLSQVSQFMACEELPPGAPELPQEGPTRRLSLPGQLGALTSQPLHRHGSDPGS

Compound `Cc1ccc(C(=O)Nc2ccc(CN3Cc4cn[nH]c4C3)c(Cl)c2)cc1C#Cc1cnc2cccnn12` has an IC50 [1] of 26.1 nM, an IC50 [2] of 2 nM and an IC50 [3] of 44.8 nM. For the same compound, the Activity [4] was 2%, the IC50 [5] was 240 nM and the IC50 [6] was 12100 nM. It also gave an IC50 [7] of 286 nM, an IC50 [8] of 8.31 nM and an IC50 [9] of 431 nM. For the same compound, the CC50 at 72 h [10] was greater than 50000 nM, the CC50 at 72 h [11] was greater than 50000 nM and the IC50 [12] was 1.3 nM.
